For data set [1] the following is noted: 0 min.
Protocol: (§1) Solutions containing respectively 10 percent carbonate and ten percent pineapple ketone in toluene are stirred in loosely capped vials at ambient temperature. Samples are taken periodically and the concentration of carbonate or ketone remaining determined by GLC (6'×1/8", 15% Carbowax-20M on 80/100 Chromasorb W, Helium=28 cc/min, 100°-210° at 8°/min). The experiment is repeated using ethanol as solvent.
Data set [2] is described as follows: physchem. The settings on record: toluene.
Protocol: as §1

The text below walks through data of US4937229A, “Pineapple ketone carbonate derivatives” (priority 1989, dated 1990).

The structures appear in SMILES notation. Where two headings read alike, the source gives them in different places.

In the case of `CCOC(=O)OC1=C(C)OC(C)C1=O` (stereo not drawn) [Example 1, ETHYL 2,5-DIMETHYL-3-OXO-4(2H)-FURYL CARBONATE], the “% Remaining” value (0 min) worked out at 100%. The “% Remaining” value in data set [1] was found to be 100%. For the same molecule, in data set [2], the fraction remaining – broadly, the share of the starting amount still present when the sample was taken – at 21 h was determined as 100%; the share remaining at 46 h was 100%; the share remaining at 69 h came out at 100%; the share remaining at 149 h was 100%. Further, in data set [2], the share remaining at 173 h was determined as 100%.
With `CC1=C(O)C(=O)C(C)O1` (stereo not drawn) [Pineapple ketone, 2,5-dimethyl-4-hydroxy-3(2H)-furanone], the “% Remaining” value (0 min) came to 100%; the “% Remaining” value (toluene, 15 h) amounted to 24%; the “% Remaining” value (toluene, 41 h) was determined as 18%; the “% Remaining” value (toluene, 116 h) is 6%; the “% Remaining” value (toluene, 138 h) was determined as 4%; the “% Remaining” value in data set [1] was found to be 100%. In data set [2], this molecule had an amount remaining at 21 h of 100%. Also, in data set [2], the amount remaining at 48 h came to 58%. The amount remaining at 72 h in data set [2] amounted to 30%. In data set [2], this molecule yielded an amount remaining at 149 h of 8%. Moreover, the share remaining at 172 h in data set [2] stood at 9%.
